Experimental data taken from patent US4935449A, “N-2,3-butadienyl tri- and tetraaminoalkane derivatives” (Merrell Dow Pharmaceuticals Inc., priority 1988, dated 1990).

What was measured:
[1] = tested on: Eimeria spp.; details: cited from earlier work
[2] = tested on: Plasmodia spp.; details: in culture in vitro; cited from earlier work
[3] = tested on: T. b. brucei; details: in mice; cited from earlier work
[4] = tested on: Pneumocystis carinii; details: cited from earlier work
[5] = tested on: ODC; details: cited from earlier work
[6] = tested on: P. gallinaceum; details: P. gallinaceum in chickens; cited from earlier work
[7] = tested on: P. berghei; details: cited from earlier work
[8] = tested on: Plasmodia spp.; details: cited from earlier work
[9] = tested on: Plasmodia spp.; details: liver of infected mice; cited from earlier work
[10] = tested on: L1210 cells; details: cited from earlier work
[11] = tested on: ODC and AdoMetDC; details: cited from earlier work
[12] = tested on: natural polyamines; details: exposure of cells; cited from earlier work
[13] = tested on: PAO; experiment: PAO activity ex vivo in the liver of mice dosed i.p. 24 hours before; details: mouse liver, Dose 1.0 mg/kg i.p., control 18.7
Excerpt: MEASUREMENT OF PAO ACTIVITIES IN MOUSE TISSUES
Chim. Biophys. Acta 38: 69-76.

[14] = molecular target: Rat Liver Pao (Rattus norvegicus, UniProt A0A8I6AEP5); experiment: In vitro inhibition of partially purified rat liver polyamine oxidase (PAO); format: biochemical
Procedure: Polyamine Oxidase Inhibition^1
Rat liver polyamine oxidase was purified by the procedure of Holtta, E.
step. Ki and .tau.50 were determined using the partially

Rat Liver Pao, sequence (A0A8I6AEP5 62-564): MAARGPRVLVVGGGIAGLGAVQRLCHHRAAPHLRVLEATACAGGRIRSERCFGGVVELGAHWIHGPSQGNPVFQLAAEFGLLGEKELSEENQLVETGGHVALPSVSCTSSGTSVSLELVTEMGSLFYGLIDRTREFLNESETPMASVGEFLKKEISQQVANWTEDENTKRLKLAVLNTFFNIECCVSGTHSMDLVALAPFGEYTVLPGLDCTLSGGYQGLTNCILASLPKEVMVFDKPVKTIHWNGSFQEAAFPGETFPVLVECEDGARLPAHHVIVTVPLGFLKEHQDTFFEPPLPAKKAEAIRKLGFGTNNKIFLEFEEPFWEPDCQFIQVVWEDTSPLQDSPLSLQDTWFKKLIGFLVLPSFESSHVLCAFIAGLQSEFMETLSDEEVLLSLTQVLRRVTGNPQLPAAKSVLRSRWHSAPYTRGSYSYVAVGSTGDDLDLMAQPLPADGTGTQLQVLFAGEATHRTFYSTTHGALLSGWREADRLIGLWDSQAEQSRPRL

NCCC[C@](N)(C(=O)O)C(F)F [DFMO, α-difluoromethylornithine]
sensitivity of Eimeria spp. [1]: sensitive
erythrocytic replication (schizogony) [2]: block erythrocytic replication (schizogony) in culture in vitro
cure of acute infections of T. b. brucei [3]: totally cure acute infections
sensitivity of Pneumocystis carinii [4]: sensitive
inhibition of ODC [5]: inhibits ODC
curative effect on erythrocytic forms of malaria in vivo [6]: no curative effects
curative effect on erythrocytic forms of malaria in vivo ([7]; P. berghei in mice): no curative effects
parasitemia in P. berghei infections ([7]; P. berghei infections): significantly reduce parasitemia
sporogonous cycle in the mosquito vector [8]: completely inhibit the sporogonous cycle in the mosquito vector
exoerythrocytic schizogony in the liver [9]: inhibit the cycle in the liver of infected mice

CCNCCCNCCCCNCCCNCC [N^1,N^12 -bis(ethyl)spermine]
support of growth of L1210 cells [10]: will not support growth of L1210 cells
repression of ODC and AdoMetDC [11]: mimic the action of their parent polyamines in the repression of ODC and AdoMetDC
depletion of the natural polyamines [12]: leads to the depletion of the natural polyamines

CCNCCCCNCCCNCC [N^1,N^8 -bis(ethyl)spermidine]
support of growth of L1210 cells [10]: will not support growth of L1210 cells
repression of ODC and AdoMetDC [11]: mimic the action of their parent polyamines in the repression of ODC and AdoMetDC
depletion of the natural polyamines [12]: leads to the depletion of the natural polyamines

C=C=CCNCCCNCCCCCCCCNCCCNCC=C=C [Compound 51]
PAO Activity [13]: 4.1 p/mol/min/mg protein
.tau.50 [14]: 2.0 min

C=C=CCNCCCNCCCNCC=C=C [Compound 46]
PAO Activity [13]: 1.0 p/mol/min/mg protein
.tau.50 [14]: 4.0 min
